Test results: patent US10259810B2, “N-sulfonylated pyrazolo[3,4-b]pyridin-6-carboxamides and method of use” (AbbVie S.à.r.l., priority 2015, dated 2019)

What was measured:
Type in all cases: cell-based
[1] = target: T1, ΔF508-CFTR (Homo sapiens, UniProt P13569, DEL508-508); experiment: CFTR cell surface levels using HRP-tagged ΔF508-CFTR expressing CFBE cells, intrinsic corrector capacity; set-up: % Activation: concentration or dose not given beside the values; conditions: HRP-tagged ΔF508-CFTR expressing CFBE41o- cells, compound alone (intrinsic corrector capacity), 20 hours at 33° C.; for EC50: read-out: EC50
T1 construct: host or cells: CFBE41o-, doxycycline-inducible
T1 sequence (P13569 with tags, fused parts or gaps DEL508-508): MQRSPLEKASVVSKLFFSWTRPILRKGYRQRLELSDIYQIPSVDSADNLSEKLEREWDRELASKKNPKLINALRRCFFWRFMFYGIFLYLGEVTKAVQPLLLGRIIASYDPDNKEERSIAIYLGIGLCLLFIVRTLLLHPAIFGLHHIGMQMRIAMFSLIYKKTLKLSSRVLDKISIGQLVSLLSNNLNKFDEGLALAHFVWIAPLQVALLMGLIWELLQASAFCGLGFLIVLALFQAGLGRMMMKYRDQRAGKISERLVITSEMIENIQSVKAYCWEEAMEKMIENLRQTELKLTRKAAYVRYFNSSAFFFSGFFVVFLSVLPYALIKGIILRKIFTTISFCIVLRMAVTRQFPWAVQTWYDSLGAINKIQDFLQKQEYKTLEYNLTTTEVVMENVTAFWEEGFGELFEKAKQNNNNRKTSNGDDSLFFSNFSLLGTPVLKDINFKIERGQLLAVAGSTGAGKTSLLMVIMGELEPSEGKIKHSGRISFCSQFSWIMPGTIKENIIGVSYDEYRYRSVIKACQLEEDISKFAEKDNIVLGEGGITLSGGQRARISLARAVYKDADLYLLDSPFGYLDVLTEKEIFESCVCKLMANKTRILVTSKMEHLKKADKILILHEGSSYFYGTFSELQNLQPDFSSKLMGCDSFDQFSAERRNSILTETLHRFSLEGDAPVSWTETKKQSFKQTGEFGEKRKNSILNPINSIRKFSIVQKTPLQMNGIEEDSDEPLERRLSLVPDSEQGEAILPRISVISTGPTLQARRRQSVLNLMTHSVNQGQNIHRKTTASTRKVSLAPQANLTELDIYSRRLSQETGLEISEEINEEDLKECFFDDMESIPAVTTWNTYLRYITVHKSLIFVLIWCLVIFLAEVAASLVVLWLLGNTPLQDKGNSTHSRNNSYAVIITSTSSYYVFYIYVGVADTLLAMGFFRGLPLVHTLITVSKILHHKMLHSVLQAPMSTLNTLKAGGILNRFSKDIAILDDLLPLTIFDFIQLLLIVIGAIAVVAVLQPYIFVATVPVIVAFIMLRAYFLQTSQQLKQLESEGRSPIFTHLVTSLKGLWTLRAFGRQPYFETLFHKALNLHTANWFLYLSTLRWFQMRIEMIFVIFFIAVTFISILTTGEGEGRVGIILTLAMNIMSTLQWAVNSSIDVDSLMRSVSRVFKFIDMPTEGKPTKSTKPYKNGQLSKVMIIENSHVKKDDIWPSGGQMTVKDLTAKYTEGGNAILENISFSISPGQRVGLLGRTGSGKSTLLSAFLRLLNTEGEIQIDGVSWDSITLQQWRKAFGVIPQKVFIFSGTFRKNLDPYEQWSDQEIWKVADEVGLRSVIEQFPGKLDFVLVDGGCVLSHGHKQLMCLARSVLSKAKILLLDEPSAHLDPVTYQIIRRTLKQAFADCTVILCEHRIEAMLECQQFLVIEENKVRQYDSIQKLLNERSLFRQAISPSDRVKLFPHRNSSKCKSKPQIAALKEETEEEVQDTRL
Procedure, shortened: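 Read-out: chemiluminescent HRP activity of ECL4-HRP-tagged ΔF508-CFTR at the cell surface, 15 min substrate in dark. Normalized as 100×(sample−DMSO)/(positive control−DMSO).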

[2] = target: T2, CFTR ΔF508 (Homo sapiens, UniProt P13569, DEL508-508); experiment: Chronic TECC assay, primary bronchial epithelial cells of CF patients homozygous for CFTR ΔF508 (corrector, co-corrector and potentiator); conditions: chronic TECC, AUC = full area under the curve upon forskolin stimulation; for EC50: read-out: EC50 (nM) (AUC**); for % Activity at 1 μM (AUC**): test compound at 1 μM; for % Activity at 3 μM (AUC**): test compound at 3 μM
T2 construct: bronchial epithelial cells isolated from CF patients homozygous for the CFTR ΔF508 mutation; McGill University; Asterand; University of North Carolina hAEC-CF; host or cells: primary human bronchial epithelial cells from CF patients homozygous for ΔF508, differentiated at air-liquid interface
T2 sequence (P13569 with tags, fused parts or gaps DEL508-508): as above
Procedure, shortened: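 Primary bronchial epithelial cells from ΔF508-homozygous CF patients on collagen IV-coated Transwells were chronically treated with test compound plus corrector and potentiator, which were re-added before recording. Ieq was derived from PD and Rt in NaCl-Ringer, pH 7.4, at 37° C, with apical amiloride and bilateral forskolin, recorded every 2 min over 20 min. Ieq increase was normalized to controls, and EC50 was taken from per-well concentrations.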

[3] = target: T1, ΔF508-CFTR; experiment: CFTR cell surface levels using HRP-tagged ΔF508-CFTR expressing CFBE cells, in the presence of a co-corrector; conditions: HRP-tagged ΔF508-CFTR CFBE cells, in the presence of 3 μM co-corrector; for EC50: read-out: EC50
Procedure, shortened: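 Chemiluminescent read-out of surface HRP (15 min, dark) after PBS washes. Activity is normalized as 100×(sample−DMSO)/(3 μM co-corrector alone−DMSO).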

SMILES	% Activation [1] [%]	EC50 [1] [nM]	EC50 [2] [nM]	% Activity at 1 μM (AUC**) [2] [%]	% Activation [3] [%]	EC50 [3] [nM]	% Activity at 3 μM (AUC**) [2] [%]
CC(C)Oc1cc(-n2nc(C3CCC3)c3c(N4CCC(N5CCOCC5)CC4)cc(C(=O)NS(=O)(=O)N(C)C)nc32)ccn1 [Compound 529, 3-cyclobutyl-N-(dimethylsulfamoyl)-4-[4-(morpholin-4-yl)piperidin-1-yl]-1-{2-[(propan-2-yl)oxy]pyridin-4-yl}-1H-pyrazolo[3,4-b]pyridine-6-carboxamide]	278.55	60.6	19.1	520	444.13	22.6	–
O=C(NS(=O)(=O)N1CCC1)c1cc(N2CCC(N3CCOCC3)CC2)c2c(C3CCC3)nn(-c3ccc(F)cc3)c2n1 [Compound 576, N-(azetidine-1-sulfonyl)-3-cyclobutyl-1-(4-fluorophenyl)-4-[4-(morpholin-4-yl)piperidin-1-yl]-1H-pyrazolo[3,4-b]pyridine-6-carboxamide]	257.15	139	–	–	443.5	54.7	225.798
COCC1CCN(c2cc(C(=O)NS(C)(=O)=O)nc3c2c(C(C)C)nn3-c2ccnc(N3CCOCC3)c2)CC1 [Compound 248, N-(methanesulfonyl)-4-[4-(methoxymethyl)piperidin-1-yl]-1-[2-(morpholin-4-yl)pyridin-4-yl]-3-(propan-2-yl)-1H-pyrazolo[3,4-b]pyridine-6-carboxamide]	234.6	371	–	275.96	450.6	221	–
COCCN1CCN(c2cc(C(=O)NS(C)(=O)=O)nc3c2c(C(C)C)nn3-c2ccc(F)cc2)CC1 [Compound 340, 1-(4-fluorophenyl)-N-(methanesulfonyl)-4-[4-(2-methoxyethyl)piperazin-1-yl]-3-(propan-2-yl)-1H-pyrazolo[3,4-b]pyridine-6-carboxamide]	138.95	1390	–	216.53	319.2	786	–
CC(=O)N1CCN(C2CCN(c3cc(C(=O)NS(=O)(=O)N(C)C)nc4c3c(C3CCC3)nn4-c3ccc(F)cc3)CC2)CC1 [Compound 493, 4-[4-(4-acetylpiperazin-1-yl)piperidin-1-yl]-3-cyclobutyl-N-(dimethylsulfamoyl)-1-(4-fluorophenyl)-1H-pyrazolo[3,4-b]pyridine-6-carboxamide]	275.2	175	371	271.4141	480.78	94.6	–
CN(C)S(=O)(=O)NC(=O)c1cc(N2CCC(CN3CCOCC3)CC2)c2c(C3CCC3)nn(C3CCCCC3)c2n1 [Compound 424, 3-cyclobutyl-1-cyclohexyl-N-(dimethylsulfamoyl)-4-{4-[(morpholin-4-yl)methyl]piperidin-1-yl}-1H-pyrazolo[3,4-b]pyridine-6-carboxamide]	249.25	244	–	–	453.88	92.2	462.0976
CN(C)S(=O)(=O)NC(=O)c1cc(N2CCC3C(CCN3C3CCC3)C2)c2c(C3CCC3)nn(-c3ccc(F)cc3)c2n1 (stereo not drawn) [Compound 626, 3-cyclobutyl-4-(1-cyclobutyloctahydro-5H-pyrrolo[3,2-c]pyridin-5-yl)-N-(dimethylsulfamoyl)-1-(4-fluorophenyl)-1H-pyrazolo[3,4-b]pyridine-6-carboxamide]	206.6	151	–	–	418.4	111	387.4854
CC(C)Oc1nn(C2CCCCC2)c2nc(C(=O)NS(C)(=O)=O)cc(-c3ccc(C(=O)N4CCN(C)CC4)cc3)c12 [Compound 422, 1-cyclohexyl-N-(methanesulfonyl)-4-[4-(4-methylpiperazine-1-carbonyl)phenyl]-3-[(propan-2-yl)oxy]-1H-pyrazolo[3,4-b]pyridine-6-carboxamide]	222.8	318	–	320	434.33	204	–
